Test: MTT cellular viability assay, 293
Assay type: cell-based
Details: human, 293 cells (human kidney epithelial cell line, ATCC CRL-1573), Example 7, FIG. 5, normal cell line 293

## CC(=O)O[C@H]1C(=O)[C@@]2(C)[C@H]([C@H](OC(=O)c3ccccc3)[C@]3(O)C[C@H](OC(=O)[C@H](O)[C@@H](NC(=O)c4ccccc4)c4ccccc4)C(C)=C1C3(C)C)[C@]1(OC(C)=O)CO[C@@H]1C[C@@H]2O [TAXOL]
  viability at 24 h: 20 to 25%

From US7163919B2, “Anticancer composition” (priority 2002, dated 2007)
